The source of these data is patent US20220248614A1, “METHOD FOR ELIMINATING PATHOGENS IN PLANT GROWING AND CORRESPONDING SYSTEM” (priority 2019, published 2022).

“Also recorded” adds a separate entry of the source.

The test system of one series is cucumber powdery mildew. Nature of the series: Actual test, control of cucumber powdery mildew (April-May 2019). It counts as in vivo, Erysiphe sp. On the procedure:
(§1) While the preliminary test was still underway, 20 cucumber seedlings were grown to the stage of a single leaf, the seedlings then being divided up into 5 boxes. The test groups were • 1. entirely untreated • 2. water spraying three times a week and watering of pot with ozone water for 3 and for 2 weeks before the conclusion of the test • 3. ozone spraying 3 three times a week • 4. ozone spraying 5 times a week at 7 a.m. and 4 p.m. • 5. ozone spraying 5 times a week at 7 a.m., 12 p.m. and 4 p.m.
The test area, in which mesh-bottomed pots were planted in peat with 4 pots in each box, was surrounded with the sick seedlings of the preliminary test, which were at a distance of approx. 60 cm from the test plants.

The subject of a further series is cucumber. Description: Tolerance of cucumber plants (leaves, roots) to ozone water. The format is in vivo. The protocol:
Mildewed cucumber leaves were collected from a garden adjacent to the research unit with which 6 outdoor cucumber seedlings were infected. After the verification of the manifestation of an infection, 18 new seedlings were grown up to the stage of the first plant leaf, at which point the plants were divided in onion boxes into 3 groups in the middle of each of which 2 ill plants were placed. The control plants were sprayed three times a week with water. The second test group was sprayed three times a day with ozone water (800 ppb) and the third test group was sprayed mornings and evenings. The sprayings were carried out with large droplets, which remained on the surface of the plant 2-4 hours. At night, the plants were covered with a monochrome plastic in order to maintain a high humidity. The sprayings took place over 6 weeks.
as §1

The subject of a further series is Fusarium oxysporum. Nature of the series: Fusarium oxysporum test 1: fungal suspension in ozone water, plated on PDA. The format is cell-based. Particulars: for culture colonies in the plate: 10 minutes. The protocol:
A plateful of F. oxyxsporum fungus without agar was homogenized with 100 ml of water. 10 ml and 1 ml of the fungal suspension were added to 100 ml of sterile water and 100 ml of 800 ppb ozone water. After 10 minutes, the inoculums from each treatment were placed in 3 PDA plates.

The test system of series [1] is Grey mould (Botrytis cinerea). Nature of the series: Grey mould test 1: spores rinsed from cabbage in ozone water, plated on PDA. It counts as cell-based. As to conditions: taken from wet cabbage / grown at very high humidity. On the procedure: Grey mould spores rinsed from cabbage were homogenized in approximately 200 ml of water. 10 ml and 1 ml of this fungal suspension were added to 100 ml of water and 100 ml of ozone water (800 ppb). After 10 and 60 minutes, specimens from each treatment were placed into 3 PDA plates.

Series [2] deals with Grey mould (Botrytis cinerea). Nature of the series: Grey mould test 2: almost dry old fungal growth rinsed into ozone water. The format is cell-based. The protocol:
A petri dish, (a CMA plate, in which cabbage discs stimulate the formation of conidia), comprising the almost dry old fungal growth and the endophytic bacteria from the cabbage therein), grey mould spores were rinsed into 100 ml of water. 1 and 10 ml of this water were pipetted into 100 ml of water and 100 ml of ozone water. 0.5 ml of each of these water mixtures was pipetted into 3 petri dishes in order to determine the vitality of the grey mould.

In the next series the test system is Pythium ultimum. Nature of the series: Pythium ultimum test 1: fungal culture soaked with ozone water. The format is cell-based. On the procedure: In a first dish, a fungal culture was soaked for 30 minutes with sterile water when the Pythium fungus had grown to a distance of approx. 2 cm away from the small piece of inoculating agar at the rim of the dish, which was removed with a large cork borer before the water treatment. The fungus grew to fill the dish within 16 hours during the water treatment. In a second dish, an identical treatment with ozone water (800 ppb) was carried out. A thicker fungal mycelium was visible in the Pythium culture around the site of inoculation, from which the fungus only had time to grow 2 cm before the ozone treatment. The ozone destroyed the youngest tips of the hyphae of the fungus and the hyphae that had grown apart from the agar, but had no effect on hyphae that had already grown partially into the agar.

The next series has as its system grey mould. Description: Grey mould test series on surfaces (wet versus dried fungus). It counts as cell-based, Botrytis cinerea. Particulars: ozone 2500 ppb in the air; grey mould washed from rotting cabbage, sprayed on cabbage, plastic, glass, redcurrant branch. An excerpt: Grey mould turns out to be surprising against ozone. […] When test set-ups yielded the same result the following year, in which grey mould spores and the associated mycelium fragments washed from the surface of moist, rotting cabbage survived on a plastic surface in an ozone spray and in a concentrated ozone solution, it was completely clear that the surfaces of the mycelium and spores of grey mould are completely resistant to ozone. […] In nature, grey mould survives until the following year on the surfaces of rotten plants such as berries and succulent leaves, where they form conidia in conidiophores in moist conditions. In wet conditions, the spores hardly spread with the wind; however, once dried by the sun, the spores of the growth break free to be carried a distance of at least 50 metres by the wind if the wind speed exceeds 2 m/s. Dried mycelium and conidiophores are readily identifiable under a microscope by their structure compared with completely turgid growths.

A further series deals with powdery mildew. Nature of the series: Control of powdery mildew infection by gaseous ozone or ozone solution. As to conditions: ozone in gaseous form, constant exposure. The format is in vivo. On the procedure: The spores of powdery mildew have an exceptionally high moisture content compared to the spores of other fungal diseases, which is why merely a very high air humidity suffices for a spore infection, yet the conidium is destroyed quickly when engulfed by a water droplet. The spores of the fungus spread during the day and make the plant ill at night. Depending on the species of the powdery mildew, the infection stage takes 6-12 hours. […] Using this knowledge, it is possible to construct technical applications for implementation in greenhouses as well as outdoors for the control of powdery mildew disease infections. Based on this solution, many other plant pests which spread first to the surfaces of the plants as dry spores that have acclimated to the shining of the sun during their evolution (for example grey mould) can also be controlled.

A further series deals with crops. As to conditions: 80-100 ppb in the air; cited from earlier work.

As to `O=[O+][O-]` [ozone], the “sensitivity of spores (conidia) of powdery mildew” value in the series with cucumber powdery mildew (in vivo) is “extremely sensitive”. The “survival of powdery mildew mycelium growing on the surface of the plant” value in the series with cucumber powdery mildew (ozone concentration of the spraying 340 ppb) is “survives”. In addition, the “state of roots compared with the untreated test group” value in the series on cucumber (actual test) is “undamaged”. Besides, the “damage to the leaves of the plants” value in the series with cucumber (actual test, ozone sprayings, any stage) was “did not damage the leaves”. Moreover, the “impact on development of fresh weight” value with cucumber (actual test, watering of the roots with ozone water) is “did not have an impact”. In the series on cucumber (approximately 800 ppb in the water, stem bottoms watered twice a week, evaluated a week after last treatment, preliminary tests), the “damage to the root system of cucumber or weakening of the plant” value is recorded as “did not cause any damage”. The results for the “culture colonies in the plate” value in the series with Fusarium oxysporum (1 ml of inoculum in 100 ml of 800 ppb ozone water) and in the series on Fusarium oxysporum (10 ml of inoculum in 100 ml of 800 ppb ozone water) were 1-3 colonies and 8-17 colonies, respectively. The “sensitivity of spores (conidia) and mycelium of Fusarium fungus” value with Fusarium oxysporum (in a solution and in sprays on surfaces of dry materials) is recorded as “completely sensitive”. Besides, the “sensitivity of grey mould mycelium and spores grown wet” value in series [1] is reported as “ozone-resistant; also recorded: completely tolerant”. Besides, the “sensitivity of dried grey mould mycelium and spores” value in series [2] is given as “sensitive”. In addition, in the series on Pythium ultimum, the “sensitivity of Pythium fungus (mycelium, zoospores)” value is “sensitive”. Also, the “killing of spores and mycelium of grey mould” value with grey mould is recorded as “not able to kill off”. Further, the “effect on powdery mildew infection” value with powdery mildew is on record as “satisfactory effect”. The “effect of constant exposure on leaves” value in the series on crops was “causes chlorosis in leaves”.
